In one assay the target is KRAS G12V (Homo sapiens, UniProt P01116, G12V). The experiment in a line: SOS-catalyzed nucleotide exchange assay, KRAS G12V (Procedure A). The class given is biochemical. As to conditions: GNE. In short, it runs like this:
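Biotinylated KRAS G12V was loaded with Bodipy-GDP alongside Terbium-streptavidin to form a TR-FRET complex, which was preincubated with compounds for 60 minutes in 384-well plates. Human SOS protein and unlabeled GTP were then added for 90 minutes, giving final concentrations of 1.25 nM KRAS-G12V, 160 nM SOS and 3 mM GTP. The 520/495 nm emission ratio was read on an Envision.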

The target in the next assay is KRAS WT (Homo sapiens, UniProt P01116). The experiment in a line: SOS-catalyzed nucleotide exchange assay, KRAS WT (Procedure A). The class given is biochemical. As to conditions: GNE. The gist of the method: (§1)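 60 min cpd preinc. w/ RAS–Bodipy-GDP–Tb-SA complex; + hSOS/GTP (3 mM final), RT. G12C 3 nM RAS/40 nM SOS; WT, G12D 1 nM/40 nM; 60 min rxn. G13D 1.25 nM, no SOS, 30 min rxn. HEPES pH 7.5, 10 mM MgCl2. Ratio 520/495, norm. to DMSO/max-inhibitor ctrls.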

Another assay deals with KRAS G12D (Homo sapiens, UniProt P01116, G12D). The assay can be described thus: SOS-catalyzed nucleotide exchange assay, KRAS G12D (Procedure A). The class given is biochemical. As to conditions: guanine nucleotide exchange (GNE). The gist of the method:
as §1

For a further assay, the target named is T1, AsPC-1 cells (Homo sapiens, UniProt P01116, G12D).
T1 construct: p-ERK/total ERK AlphaSureFire read-out
The experiment in a line: Cellular phospho-ERK assay, AsPC-1 cells (KRAS G12D). The class given is cell-based. As to conditions: 2 hours, read-out: AsPC1 pERK IC50. In short, it runs like this: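 Compound was titrated 10-point in 3-fold steps (top 30 μM) on KRAS G12D homozygous pancreatic lines PANC08.13 and AsPC-1 for 2 h at 37 °C. The p-ERK/total ERK ratio was measured by multiplex AlphaLISA SureFire and fitted with a 4-parameter logistic model to give IC50.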

pIC50: −log10 of the molar value.

One may read the pIC50 as the negative decadic logarithm of the IC50, by convention in mol/L.

Chain of KRAS G12V (P01116 with tags, fused parts or gaps isoform P01116-2 G12V): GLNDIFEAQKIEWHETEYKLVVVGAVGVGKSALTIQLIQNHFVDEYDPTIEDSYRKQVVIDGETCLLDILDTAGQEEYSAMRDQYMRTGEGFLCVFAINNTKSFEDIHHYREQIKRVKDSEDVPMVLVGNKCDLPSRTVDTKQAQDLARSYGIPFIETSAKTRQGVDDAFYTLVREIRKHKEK
T1 sequence (P01116 1-188 isoform P01116-2 G12D): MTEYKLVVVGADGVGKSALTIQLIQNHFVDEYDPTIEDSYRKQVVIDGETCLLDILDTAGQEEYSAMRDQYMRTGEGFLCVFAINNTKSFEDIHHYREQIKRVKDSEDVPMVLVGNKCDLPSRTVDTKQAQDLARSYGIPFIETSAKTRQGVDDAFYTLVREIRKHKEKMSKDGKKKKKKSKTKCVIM
Chain of KRAS WT (P01116 with tags, fused parts or gaps isoform P01116-2): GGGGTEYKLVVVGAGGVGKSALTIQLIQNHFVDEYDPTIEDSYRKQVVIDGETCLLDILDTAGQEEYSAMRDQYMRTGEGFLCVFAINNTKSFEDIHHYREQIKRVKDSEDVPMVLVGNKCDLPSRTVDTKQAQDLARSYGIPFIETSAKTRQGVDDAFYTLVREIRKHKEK
Chain of KRAS G12D (P01116 with tags, fused parts or gaps isoform P01116-2 G12D): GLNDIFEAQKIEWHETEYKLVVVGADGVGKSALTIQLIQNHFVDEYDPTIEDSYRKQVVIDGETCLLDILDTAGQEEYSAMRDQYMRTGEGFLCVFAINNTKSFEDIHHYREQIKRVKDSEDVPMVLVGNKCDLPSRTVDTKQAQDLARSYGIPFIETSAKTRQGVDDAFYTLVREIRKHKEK

As for `C#Cc1c(F)ccc2cc3[nH]ncc3c(-c3nccc4c3sc3nc(OC[C@]5(CN6CCC(CCc7cn(C)nn7)CC6)CC5(F)F)nc(N5C[C@H]6CC[C@@H](C5)N6)c34)c12` [Ex-105, 4-((1R,5S)-3,8-diazabicyclo[3.2.1]octan-3-yl)-2-(((R)-2,2-difluoro-1-((4-(2-(1-methyl-1H-1,2,3-triazol-4-yl)ethyl)piperidin-1-yl)methyl)cyclopropyl)methoxy)-8-(5-ethynyl-6-fluoro-1H-benzo[f]indazol-4-yl)pyrido[4′,3′:4,5]thie-no[2,3-d]pyrimidine], the pIC50 was 6.32 against KRAS G12V, 6.55 at KRAS WT, 8.80 on KRAS G12D and 7.17 on AsPC-1 cells.

With `C#Cc1c(F)ccc2cc3[nH]ncc3c(-c3nccc4c3sc3nc(OC[C@]5(CN6CCC7(CCCCC7)CC6)CC5(F)F)nc(N5C[C@H]6CC[C@@H](C5)N6)c34)c12` [Ex-100, 2-(((R)-1-((3-azaspiro[5.5]undecan-3-yl)methyl)-2,2-difluorocyclopropyl)meth-oxy)-4-((1R,5S)-3,8-diazabicyclo[3.2.1]octan-3-yl)-8-(5-ethynyl-6-fluoro-1H-benzo[f]indazol-4-yl)pyrido [4′,3′:4,5]thie-no[2,3-d]pyrimidine], the pIC50 on KRAS G12V was below 4.95; against KRAS WT, below 4.95; against KRAS G12D, 8.07; at AsPC-1 cells it was 6.12.

The values are drawn from patent US20260347372A1, “SMALL MOLECULE INHIBITORS OF KRAS G12D MUTANT” (MERCK SHARP & DOHME LLC, priority 2023, published 2026).
